Holding throughout (format): biochemical
Assay [1] deals with T1, autotaxin (ATX, NPP-2, lysophospholipase D) (Homo sapiens, UniProt Q13822). In words: LPLD activity (choline release from LPC), […] compound, about […] reduction. Also noted: gene ENPP2; recombinant human ATX (vATX). The settings on record: read-out: % reduction at 15 mM.
The target of assay [2] is T1, autotaxin (ATX, NPP-2, lysophospholipase D). In words: LPLD activity (choline release from LPC) and PDE activity (pNp-TMP) with purified recombinant ATX. Also noted: gene ENPP2; recombinant human ATX (vATX), cloned from an MDA-MB-435 cell library.
For assay [3] the target is unchanged. In words: LPLD activity (choline release from LPC), […] compound, […] reduction; methyl on the alpha nitrogen. More on the design: gene ENPP2; recombinant human ATX (vATX). The settings on record: read-out: % reduction at 15 mM.
For assay [4] the target is unchanged. In words: LPLD activity (choline release from LPC), […] compound, about […] reduction. More on the design: gene ENPP2; recombinant human ATX (vATX). The following applies: read-out: % reduction at 15 mM. The source holds these as a separate data set.
Assay [5] shares this target. In words: LPLD activity (choline release from LPC), […] compound, […] reduction. Also noted: gene ENPP2; recombinant human ATX (vATX). The following applies: read-out: % reduction at 15 mM.
The target is the same in assay [6]. In words: LPLD enzyme kinetics (choline release), Km. More on the design: gene ENPP2; recombinant human ATX (vATX).

The IC50 is the point on the concentration scale where inhibition reaches its midpoint. As usually defined, the Km is the substrate concentration at which the rate is half of its maximum.

Consider `N[C@H](Cc1c[nH]cn1)C(=O)O` [D-histidine], for which the inhibition at 15000 µM in assay [1] was roughly 75%.
With `N[C@@H](Cc1c[nH]cn1)C(=O)O` [L-histidine], the IC50 in assay [2] amounted to 4 ± 1.1 mM.
As to `CN[C@@H](Cc1c[nH]cn1)C(=O)O` [N-methyl histidine], the inhibition at 15000 µM in assay [3] was found to be 30%.
`NC(=O)[C@@H](N)Cc1c[nH]cn1` [histidinamide]: in assay [4], the inhibition at 15000 µM was roughly 20%.
Take `COC(=O)[C@@H](N)Cc1c[nH]cn1` [histidine methyl ester]: the inhibition at 15000 µM in assay [5] amounted to 65%.
Regarding LPC (18:1), in assay [6], the Km is 490 ± 50 µM.

For the origin of these results see paper PMC554093, “L-histidine inhibits production of lysophosphatidic acid by the tumor-associated cytokine, autotaxin” (Lipids in Health and Disease, 2005).
